The record followed here is patent publication US11485742B2, “2-azaspiro[3.4]octane derivatives as M4 agonists” (NOVARTIS AG, priority 2019, dated 2022).

Structures are written as SMILES.

What all share (format): cell-based
Assay [1] addresses T1, human cloned CHRM3 receptor (Homo sapiens, UniProt P20309).
T1 construct: expressed in transfected cells; host or cells: CHO-K1 (M3_CHO)
In words: CHRM3 Ca++ Flux Assay (M3_CHO cells, agonist mode). The settings on record: for M3 FDSS PA % / Emax: Percent Activity (PA) measured to EC100 of Carbachol; for EC50: agonist mode, geometric mean if tested more than once, read-out: M3 FDSS EC50; for Emax: read-out: M3 FDSS PA %. The protocol: (§1) The above examples were characterized by measuring the intracellular mobilization of Ca^++ ions caused by signaling events mediated by the receptor. The Intra-cellular Calcium flux levels were captured by the highly sensitive Ca^++ indicator, Calcium Assay Kit (BD Biosciences; Catalog Number 640178. The fluorescent activity from all receptors were monitored by the fluorescent imager, FDSS 7000EX (Hamamatsu) over a span of 3 minutes. The change in Calcium flux was readily captured upon activation with the muscarinic orthosteric agonist, Carbachol.
(§2) CHO-K1 cells stably expressing the human cloned CHRM3 receptor (M3_CHO cells) were grown and maintained in a monolayer culture with F12/HAM (Life Technologies) supplemented with 10% Fetal Bovine Serum, IX Pen-Strep, and 0.4 mg/mL Geneticin in a humidified atmosphere (5% CO2) at 37° C. The cultures were grown to 80-90% confluency in T150 flasks (Corning) and washed with 1×DPBS and lifted with 0.05% Trypsin (Life Technologies). The cells were then spun (1K rpm, 3 minutes) and frozen using Recovery Cell Culture Freezing Media (Gibco Technologies). Cells were stored in liquid nitrogen and thawed a day before the assay. A similar procedure was used for cells stably expressing the human cloned CHRM5 receptor (M5_CHO).
(§3) Prior to the day of the assay, stable M3_CHO or M5_CHO cells were thawed and plated on Greiner 384 well black TC treated plates at 12K cells/well in F12/DMEM supplemented with 10% FBS (Hyclone) and kept overnight in a humidified atmosphere (5% CO2) at 37° C. The next day, cells were loaded with Ca^++ dye (BD Biosciences) using Loading Buffer (HBSS +Ca/+Mg, 20 mM HEPES, 2.5 mM Probenecid) and placed back in cell incubator for a minimum of 1 hour. After incubation, the dye was replaced with Assay Buffer (HBSS −Ca/−Mg, 20 mM HEPES, 2.5 mM Probenecid) and kept at room temperature in the dark before running on cell imager. The FDSS 7000EX (Hamamatsu) was used to acquire Ca^+− traces from cells treated with 11 point dose response of compounds in triplicate in order to generate dose response curves in agonist mode. All compounds were serially diluted in DMSO then prepared in Assay Buffer for Ca^++ flux studies. The dose response curves were generated from the average of triplicate wells obtained from each data point and used a non-linear regression of four parameter dose response algorithm. The Percent Activity (PA) was measured to EC100 of Carbachol.
(§4) If an Example was tested more than once in an assay, then the values below represent the geometric mean of the results from each independent experiment.

Assay [2] addresses T2, human cloned CHRM2 receptor (Homo sapiens, UniProt P08172).
T2 construct: expressed in transfected cells; host or cells: CHO-K1 (M2_CHO)
T2 sequence (P08172 1-466): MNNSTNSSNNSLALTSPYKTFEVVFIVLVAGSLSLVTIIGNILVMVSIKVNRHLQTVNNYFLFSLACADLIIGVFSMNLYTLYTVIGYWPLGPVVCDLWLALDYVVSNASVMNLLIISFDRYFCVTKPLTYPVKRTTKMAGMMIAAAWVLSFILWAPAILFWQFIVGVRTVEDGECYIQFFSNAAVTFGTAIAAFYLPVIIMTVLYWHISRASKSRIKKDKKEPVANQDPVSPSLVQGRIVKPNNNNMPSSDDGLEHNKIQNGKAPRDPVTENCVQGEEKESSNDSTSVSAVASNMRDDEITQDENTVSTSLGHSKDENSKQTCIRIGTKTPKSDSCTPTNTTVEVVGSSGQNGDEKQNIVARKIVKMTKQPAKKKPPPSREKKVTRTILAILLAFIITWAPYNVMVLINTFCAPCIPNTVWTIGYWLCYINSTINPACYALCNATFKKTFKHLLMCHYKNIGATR
Description: CHRM2 Ca++ Flux Assay (M2_CHO cells, agonist mode). The settings on record: M2 CHO cells; for EC50: agonist mode, geometric mean if tested more than once, read-out: M2 FDSS EC50; for M2 FDSS PA % / Emax: Percent Activity (PA) measured to EC100 of Carbachol; for Emax: read-out: M2 FDSS PA %. The protocol: as §1
as §2, with “CHRM2” for “CHRM3”, “(M2_CHO” for “(M3_CHO”, “1×Pen-Strep,” for “IX Pen-Strep,”, “assay.” for “assay. A similar procedure was used for cells stably expressing the human cloned CHRM5 receptor (M5_CHO).”
Prior to the day of the assay, stable M2 CHO cells were thawed and plated on Greiner 384 well TC treated plate at a density of 12K cells/well and kept overnight in a humidified atmosphere (5% CO2) at 37° C. The following day, the cells were loaded with Ca^++ dye (BD Biosciences) using Loading Buffer (HBSS +Ca/+Mg, 20 mM HEPES, 2.5 mM Probenecid) and placed back in cell incubator for a minimum of 1 hour and maximum of 2 hours. After incubation, the dye was replaced with Assay Buffer (HBSS −Ca/−Mg, 20 mM HEPES, 2.5 mM Probenecid) supplemented with 20 μM ATP (Sigma Aldrich) and kept at room temperature for 60 minutes prior before running on cell imager. The FDSS 7000EX (Hamamatsu) was used to acquire Ca^++ traces from cells in response to compound treatment and the data was used to generate dose response curves in agonist mode. All compounds were serially diluted in DMSO then prepared in Assay Buffer for Ca^−+ flux studies. The dose response curves were generated from the average of triplicate wells obtained from each data point and used a non-linear regression of four parameter dose response algorithm. The Percent Activity (PA) was measured to EC100 of Carbachol.
as §4

Assay [3] deals with T3, human cloned CHRM5 receptor (Homo sapiens, UniProt P08912).
T3 construct: expressed in transfected cells; host or cells: CHO (M5_CHO)
T3 sequence (P08912 1-532): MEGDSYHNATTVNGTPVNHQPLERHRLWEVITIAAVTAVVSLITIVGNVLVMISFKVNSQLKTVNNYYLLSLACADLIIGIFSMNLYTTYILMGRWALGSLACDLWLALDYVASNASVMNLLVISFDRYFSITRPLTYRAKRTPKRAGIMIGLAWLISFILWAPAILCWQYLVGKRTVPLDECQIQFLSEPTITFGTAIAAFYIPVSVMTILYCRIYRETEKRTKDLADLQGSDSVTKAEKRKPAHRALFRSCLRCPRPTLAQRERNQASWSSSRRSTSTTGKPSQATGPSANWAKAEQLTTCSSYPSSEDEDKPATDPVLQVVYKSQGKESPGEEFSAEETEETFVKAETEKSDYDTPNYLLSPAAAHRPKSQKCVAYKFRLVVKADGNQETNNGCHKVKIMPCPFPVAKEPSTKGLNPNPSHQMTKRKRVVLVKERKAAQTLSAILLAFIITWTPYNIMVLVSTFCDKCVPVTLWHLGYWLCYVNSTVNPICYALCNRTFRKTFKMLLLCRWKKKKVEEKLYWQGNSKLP
In words: CHRM5 Ca++ Flux Assay (M5_CHO cells, agonist mode). As to conditions: for M5 FDSS PA % / Emax: Percent Activity (PA) measured to EC100 of Carbachol; for EC50: agonist mode, geometric mean if tested more than once, read-out: M5 FDSS EC50; for Emax: read-out: M5 FDSS PA %. The protocol:
as §1, §2, §3, §4

T1 sequence (P20309 whole entry): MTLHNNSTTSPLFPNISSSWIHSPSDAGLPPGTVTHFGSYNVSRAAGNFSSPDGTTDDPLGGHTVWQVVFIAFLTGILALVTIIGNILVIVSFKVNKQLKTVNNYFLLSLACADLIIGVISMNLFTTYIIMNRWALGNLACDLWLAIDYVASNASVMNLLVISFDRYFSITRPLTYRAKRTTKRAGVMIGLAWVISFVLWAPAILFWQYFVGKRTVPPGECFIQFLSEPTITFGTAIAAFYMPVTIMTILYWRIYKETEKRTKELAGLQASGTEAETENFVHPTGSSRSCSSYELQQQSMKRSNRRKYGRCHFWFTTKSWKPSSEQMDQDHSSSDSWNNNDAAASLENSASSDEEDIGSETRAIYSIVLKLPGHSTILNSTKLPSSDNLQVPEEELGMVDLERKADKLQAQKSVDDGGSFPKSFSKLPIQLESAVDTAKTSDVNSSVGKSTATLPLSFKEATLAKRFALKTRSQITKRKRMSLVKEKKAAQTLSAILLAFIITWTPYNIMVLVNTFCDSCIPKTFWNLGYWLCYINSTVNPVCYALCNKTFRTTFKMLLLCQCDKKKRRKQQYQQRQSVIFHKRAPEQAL

As to `O[C@H]1CC[C@@H](c2ccc(F)cc2C2CCN([C@@H]3COC4(C3)CN(c3nnco3)C4)CC2)CC1` (single isomer, unassigned) [Example 3H, (1R,4s)-4-(2-(1-((S)-2-(1,3,4-oxadiazol-2-yl)-5-oxa-2-azaspiro[3.4]octan-7-yl)piperidin-4-yl)-4-fluorophenyl)cyclohexan-1-ol or (1S,4r)-4-(2-(1-((S)-2-(1,3,4-oxadiazol-2-yl)-5-oxa-2-azaspiro[3.4]octan-7-yl)piperidin-4-yl)-4-fluorophenyl)cyclohexan-1-ol], in assay [1], the “M3 FDSS PA %” value stood at 20% and the EC50 worked out at 10.7 µM. For the same compound, in assay [2], the EC50 was determined as 2460 nM and the “M2 FDSS PA %” value worked out at 30%. In addition, in assay [3], the “M5 FDSS PA %” value worked out at 0% and the EC50 is greater than 25 µM.

Turning to `COC(C)(C)CCOc1ccc(F)cc1C1CCN([C@@H]2COC3(C2)CN(c2nncs2)C3)CC1` [Example 5N, (S)-7-(4-(5-fluoro-2-(3-methoxy-3-methylbutoxy)phenyl)piperidin-1-yl)-2-(1,3,4-thiadiazol-2-yl)-5-oxa-2-azaspiro[3.4]octane], the Emax was 0% in assay [1], 38% in assay [2] and 21% in assay [3]. In addition, the EC50 in assay [1] is greater than 25 µM; in assay [2] it was greater than 25000 nM; in assay [3], 12.4 µM.

`CC1(C)C[C@@H](Oc2ccc(F)cc2C2CCN([C@@H]3COC4(C3)CN(c3nnco3)C4)CC2)CO1` (single isomer, unassigned) [Example 2O, (S)-7-(4-(2-(((R)-5,5-dimethyltetrahydrofuran-3-yl)oxy)-5-fluorophenyl)piperidin-1-yl)-2-(1,3,4-oxadiazol-2-yl)-5-oxa-2-azaspiro[3.4]octane or (S)-7-(4-(2-(((S)-5,5-dimethyltetrahydrofuran-3-yl)oxy)-5-fluorophenyl)piperidin-1-yl)-2-(1,3,4-oxadiazol-2-yl)-5-oxa-2-azaspiro[3.4]octane]: in assay [1], the “M3 FDSS PA %” value was 0% and the EC50 is greater than 25 µM. Besides, in assay [2], the EC50 amounted to 581 nM and the “M2 FDSS PA %” value stood at 37%. Moreover, in assay [3], the “M5 FDSS PA %” value is reported as 0% and the concentration for a half-maximal effect (EC50) is greater than 25 µM.

In the case of `OC[C@H]1C[C@H](Oc2ccc(F)cc2C2CCN([C@@H]3COC4(C3)CN(c3nnco3)C4)CC2)C1` (single isomer, unassigned) [Example 2II, ((1S,3r)-3-(2-(1-((S)-2-(1,3,4-oxadiazol-2-yl)-5-oxa-2-azaspiro[3.4]octan-7-yl)piperidin-4-yl)-4-fluorophenoxy)cyclobutyl)methanol or ((1R,3s)-3-(2-(1-((S)-2-(1,3,4-oxadiazol-2-yl)-5-oxa-2-azaspiro[3.4]octan-7-yl)piperidin-4-yl)-4-fluorophenoxy)cyclobutyl)methanol], in assay [1], the “M3 FDSS PA %” value came out at 0% and the EC50 is greater than 25 µM. In addition, in assay [2], the half-maximal effective concentration (EC50) came out at 4290 nM and the “M2 FDSS PA %” value is recorded as 23%. For the same compound, in assay [3], the “M5 FDSS PA %” value came to 0% and the EC50 was greater than 25 µM.

`COc1ccccc1C1CCN([C@@H]2COC3(C2)CN(c2nncs2)C3)CC1` [Example 5R, (S)-7-(4-(2-methoxyphenyl)piperidin-1-yl)-2-(1,3,4-thiadiazol-2-yl)-5-oxa-2-azaspiro[3.4]octane]: the figures for the Emax in assay [1], in assay [2] and in assay [3] were 0%, 18% and 0%, respectively. Moreover, the results for the EC50 in assay [1], in assay [2] and in assay [3] were greater than 25 µM, 1240 nM and greater than 25 µM, respectively.

`c1ccc(C2CCN([C@@H]3COC4(C3)CN(c3ncco3)C4)CC2)c(OC2CC3(COC3)C2)c1` [Example 4M, (S)-7-(4-(2-((2-oxaspiro[3.3]heptan-6-yl)oxy)phenyl)piperidin-1-yl)-2-(oxazol-2-yl)-5-oxa-2-azaspiro[3.4]octane]: the Emax in assay [1], in assay [2] and in assay [3] was 0% each time. The EC50 in assay [1] was greater than 25 µM; in assay [2] it was greater than 25000 nM; in assay [3], greater than 25 µM.

On to `Fc1cc(OC2COC2)c(C2CCN([C@@H]3COC4(C3)CN(c3nnco3)C4)CC2)cc1F` [Example 2FF, (S)-7-(4-(4,5-difluoro-2-(oxetan-3-yloxy)phenyl)piperidin-1-yl)-2-(1,3,4-oxadiazol-2-yl)-5-oxa-2-azaspiro[3.4]octane], for which the Emax in assay [1] was 0%; in assay [2] it was 28%; in assay [3], 0%. Besides, the EC50 was greater than 25 µM in assay [1], 312 nM in assay [2] and greater than 25 µM in assay [3].

On to `Fc1ccc(OC[C@H]2COCCO2)c(C2CCN([C@@H]3COC4(C3)CN(c3nncs3)C4)CC2)c1` [Example 5K, (S)-7-(4-(2-(((R)-1,4-dioxan-2-yl)methoxy)-5-fluorophenyl)piperidin-1-yl)-2-(1,3,4-thiadiazol-2-yl)-5-oxa-2-azaspiro[3.4]octane], for which the Emax in assay [1] is 0%; in assay [2], 32%; in assay [3], 0%. Moreover, the 50% effective concentration (EC50) was greater than 25 µM in assay [1], 453 nM in assay [2] and 6.64 µM in assay [3].

In general, EC50 refers to the concentration needed to bring the measured effect to its halfway point.
